In patent US20250163067A1, “NUCLEOBASE-SUBSTITUTED PIPERIDINYL-PYRIDINES AND RELATED COMPOUNDS AND THEIR USE IN TREATING DISEASES AND CONDITIONS” (K36 Therapeutics, Inc., priority 2023, published 2025) one finds IC50 data, which are given here for 27 compounds.

pIC50: −log10 of the molar value.

For this assay, the target named is recombinant human NSD2 (Homo sapiens (Human), UniProt O96028). Briefly: NSD2 inhibitory activity, modified RBC HotSpot HMT Assay. The assay is classed as biochemical. The following applies: recombinant human NSD2 (amino acids 2-end) 2 nM, chicken oligonucleosomes 0.05 mg/ml, 3H-SAM 1 μM, 1 hour at 30° C. As for the experimental part:
Exemplary compounds were tested for NSD2 inhibitory activity using a modified RBC HotSpot HMT Assay.
A reaction mixture was prepared by adding oligonucleosomes from Chicken (0.05 mg/ml) to freshly prepared reaction buffer containing 50 mM Tris-HCl (pH 8.5), 50 mM NaCl, 5 mM MgCl2, 0.01% Brij35, 1 mM DTT, and 1% DMSO followed by the addition of recombinant human NSD2, (amino acids 2-end) with N-terminal His tag (2 nM; GenBank Accession No. NM 001042424; MW=155.5 kDa; expressed in Sf9 insect cells) and gentle mixing. The test compounds were diluted in DMSO, added to the reaction mixture in nanoliter amounts by using Acoustic Technology (Echo 550, LabCyte Inc. Sunnyvale, CA) and incubated for 20 minutes at room temperature. The reaction was initiated by the addition of S-Adenosyl-L-[methyl-^3H] methionine (^3H-SAM; 1 μM), and the mixture was incubated for 1 hour at 30° C. The reaction mixture was delivered to filter paper and the methylated substrate was quantified by scintillation counting. Data analysis was performed using Excel and GraphPad Prism software for IC50 curve fits. For additional information on the histone methyltransferase assay, see, for example, Horiuchi K Y, et al., “Assay Development for Histone Methyltransferases,” Assay Drug Dev Technol. 2013 May; 11 (4): 227-36.

Chain of recombinant human NSD2 (O96028 2-1365 limits assumed): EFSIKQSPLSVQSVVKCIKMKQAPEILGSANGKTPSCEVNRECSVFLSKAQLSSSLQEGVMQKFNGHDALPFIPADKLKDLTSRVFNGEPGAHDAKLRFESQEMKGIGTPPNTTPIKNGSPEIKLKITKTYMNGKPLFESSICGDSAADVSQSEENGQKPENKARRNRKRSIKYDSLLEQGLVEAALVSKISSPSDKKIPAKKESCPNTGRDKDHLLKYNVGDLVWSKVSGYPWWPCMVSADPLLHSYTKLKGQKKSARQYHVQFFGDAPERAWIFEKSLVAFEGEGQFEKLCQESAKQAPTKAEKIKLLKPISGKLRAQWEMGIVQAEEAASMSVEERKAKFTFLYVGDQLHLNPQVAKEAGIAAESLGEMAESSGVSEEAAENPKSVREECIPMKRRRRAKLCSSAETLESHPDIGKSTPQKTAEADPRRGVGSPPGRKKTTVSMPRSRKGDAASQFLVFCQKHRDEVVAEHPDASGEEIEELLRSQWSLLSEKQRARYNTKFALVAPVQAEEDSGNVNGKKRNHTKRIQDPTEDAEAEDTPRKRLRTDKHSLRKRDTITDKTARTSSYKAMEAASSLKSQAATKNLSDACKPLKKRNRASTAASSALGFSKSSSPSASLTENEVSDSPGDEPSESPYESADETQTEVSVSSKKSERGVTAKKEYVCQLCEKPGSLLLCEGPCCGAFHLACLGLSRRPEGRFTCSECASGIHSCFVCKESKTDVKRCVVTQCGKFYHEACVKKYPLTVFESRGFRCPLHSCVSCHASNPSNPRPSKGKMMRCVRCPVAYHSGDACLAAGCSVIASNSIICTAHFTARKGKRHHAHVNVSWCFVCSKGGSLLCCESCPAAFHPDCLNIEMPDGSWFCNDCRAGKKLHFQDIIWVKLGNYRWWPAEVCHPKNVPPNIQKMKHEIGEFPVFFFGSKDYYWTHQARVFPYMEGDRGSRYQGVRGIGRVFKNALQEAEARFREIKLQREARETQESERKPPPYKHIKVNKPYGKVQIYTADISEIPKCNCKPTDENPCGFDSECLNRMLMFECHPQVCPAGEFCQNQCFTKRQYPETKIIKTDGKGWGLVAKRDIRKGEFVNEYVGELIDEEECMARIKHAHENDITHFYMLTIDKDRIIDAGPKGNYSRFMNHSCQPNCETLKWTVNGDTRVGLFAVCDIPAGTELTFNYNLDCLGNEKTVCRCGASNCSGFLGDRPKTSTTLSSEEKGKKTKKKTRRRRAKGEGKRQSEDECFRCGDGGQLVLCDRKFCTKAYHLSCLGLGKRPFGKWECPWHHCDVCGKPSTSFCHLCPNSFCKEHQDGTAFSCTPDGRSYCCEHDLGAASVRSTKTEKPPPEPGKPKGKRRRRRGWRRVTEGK

As usually defined, the pIC50 is the negative decadic logarithm of the IC50, by convention in mol/L. Regarding `COc1cc(F)c(-c2cc(CN3Cc4nccnc4C3)c(N3CCC[C@](N)([C@H](O)C(F)F)C3)cn2)cc1F` [IV-11], the pIC50 was below 6.00.

`COc1cc(F)c(-c2cc(Cn3ncc4cncnc43)c(N3CCC[C@](N)([C@H](O)C(F)F)C3)cn2)cc1F` [IV-10]: the pIC50 is below 6.00.

In the case of `COc1cc(F)c(-c2cc(Cn3cnc4c(O)nc(N)nc43)c(N3CCC[C@](N)([C@H](O)C(F)F)C3)cn2)cc1F` [IV-17], the pIC50 was below 6.00.

Consider `COc1cc(F)c(-c2cc(CN3CCNC3=O)c(N3CCC[C@](N)([C@H](O)C(F)F)C3)cn2)cc1F` [IV-22], for which the pIC50 is below 6.00.

Take `COc1cc(F)c(-c2cc(Cn3cnc4cnncc43)c(N3CCC[C@](N)([C@H](O)C(F)F)C3)cn2)cc1F` [IV-8]: the pIC50 is below 6.00.

For the compound `COc1cc(F)c(-c2cc(Cn3ccc(N)nc3=O)c(N3CCC[C@](N)([C@H](O)C(F)F)C3)cn2)cc1F` [IV-18], the pIC50 is below 6.00.

Turning to `COc1cc(F)c(-c2cc(Cn3cnc4nccnc43)c(N3CCC[C@](N)([C@H](O)C(F)F)C3)cn2)cc1F` [IV-7], the pIC50 is below 6.00.

Consider `COc1cc(F)c(-c2cc(Cn3cnnc3)c(N3CCC[C@](N)([C@H](O)C(F)F)C3)cn2)cc1F` [IV-30], for which the pIC50 was below 6.00.

As for `COc1cc(F)c(-c2cc(Cn3ccc4cnccc43)c(N3CCC[C@](N)([C@H](O)C(F)F)C3)cn2)cc1F` [IV-23], the pIC50 was below 6.00.

Consider `COc1cc(F)c(-c2cc(Cn3cnc4cncnc43)c(N3CCC[C@](N)([C@H](O)C(F)F)C3)cn2)cc1F` [IV-1], for which the pIC50 was at least 6.00.

On to `COc1cc(F)c(-c2cc(Cn3ccc4nccnc43)c(N3CCC[C@](N)([C@H](O)C(F)F)C3)cn2)cc1F` [IV-13], for which the pIC50 is below 6.00.

With `COc1cc(F)c(-c2cc(CN3NCc4cnc(N)nc43)c(N3CCC[C@](N)([C@H](O)C(F)F)C3)cn2)cc1F` [IV-24], the pIC50 is below 6.00.

Consider `COc1cc(F)c(-c2cc(Cc3cnc4c(N)nccn34)c(N3CCC[C@](N)([C@H](O)C(F)F)C3)cn2)cc1F` [Compound I-4, (S)-1-((R)-3-AMINO-1-(4-((8-AMINOIMIDAZO [1,2-A]PYRAZIN-3-YL)METHYL)-6-(2,5-DIFLUORO-4-METHOXYPHENYL)PYRIDIN-3-YL)PIPERIDIN-3-YL)-2,2-DIFLUOROETHAN-1-OL], for which the pIC50 is at least 6.00.

With `COc1cc(F)c(-c2cc(CN3CCC(=O)NC3=O)c(N3CCC[C@](N)([C@H](O)C(F)F)C3)cn2)cc1F` [IV-19], the pIC50 was below 6.00.

Consider `COc1cc(F)c(-c2cc(Cn3ncc4nccnc43)c(N3CCC[C@](N)([C@H](O)C(F)F)C3)cn2)cc1F` [IV-12], for which the pIC50 was below 6.00.

As to `COc1cc(F)c(-c2cc(Cn3ccc4cncnc43)c(N3CCC[C@](N)([C@H](O)C(F)F)C3)cn2)cc1F` [IV-4], the pIC50 is below 6.00.

`COc1cc(F)c(-c2cc(CNc3cc4[nH]ccc4cn3)c(N3CCC[C@](N)([C@H](O)C(F)F)C3)cn2)cc1F` [IV-28]: the pIC50 is below 6.00.

With `COc1cc(F)c(-c2cc(Cn3ccnn3)c(N3CCC[C@](N)([C@H](O)C(F)F)C3)cn2)cc1F` [IV-21], the pIC50 was below 6.00.

Consider `COc1cc(F)c(-c2cc(Cn3ccnc3)c(N3CCC[C@](N)([C@H](O)C(F)F)C3)cn2)cc1F` [IV-20], for which the pIC50 was below 6.00.

Take `COc1cc(F)c(-c2cc(Cn3ccc4ncccc43)c(N3CCC[C@](N)([C@H](O)C(F)F)C3)cn2)cc1F` [IV-14]: the pIC50 is below 6.00.

With `COc1cc(F)c(-c2cc(Cn3cnc4ccccc43)c(N3CCC[C@](N)([C@H](O)C(F)F)C3)cn2)cc1F` [IV-6], the pIC50 was below 6.00.

For `COc1cc(F)c(-c2cc(Cn3ncc4ncncc43)c(N3CCC[C@](N)([C@H](O)C(F)F)C3)cn2)cc1F` [IV-9], the pIC50 is below 6.00.

Turning to `COc1cc(F)c(-c2cc(Cn3cnnn3)c(N3CCC[C@](N)([C@H](O)C(F)F)C3)cn2)cc1F` [IV-29], the pIC50 was below 6.00.

Turning to `COc1cc(F)c(-c2cc(CN3CCc4cncnc43)c(N3CCC[C@](N)([C@H](O)C(F)F)C3)cn2)cc1F` [IV-3], the pIC50 was below 6.00.

In the case of `COc1cc(F)c(-c2cc(Cn3ncc4cnccc43)c(N3CCC[C@](N)([C@H](O)C(F)F)C3)cn2)cc1F` [IV-15], the pIC50 was below 6.00.

Take `COc1cc(F)c(-c2cc(Cn3cnc4ncncc43)c(N3CCC[C@](N)([C@H](O)C(F)F)C3)cn2)cc1F` [IV-2]: the pIC50 is below 6.00.

Consider `COc1cc(F)c(-c2cc(Cn3ccc4ncncc43)c(N3CCC[C@](N)([C@H](O)C(F)F)C3)cn2)cc1F` [IV-5], for which the pIC50 is at least 6.00.
